Assay results published in PubChem BioAssay AID192 (DTP/NCI, 2004).
“And” between values parts separate entries of the source, which are not always exact repeats. Equal entries are not always repeated. Inconclusive results and toxic doses are left out. The calls were made as follows: active = survival T/C of 150% or more; inactive = T/C below 125% in these data.

System: BDF1 mice, B16 melanoma ip, median survival T/C
Experiment: NCI In Vivo Anticancer Drug Screen. Data for tumor model B16 Melanoma (intraperitoneal) in B6D2F1 (BDF1) mice
Settings: endpoint: median survival time, higher = longer survival
Outline: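 Values are ratios of treated (T) to vehicle-control (C) measurements of survival or tumor size in tumor-bearing mice.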

[1] = dose: 6.25 mg/kg/injection, schedule: Q01DX009 (ip), vehicle: saline
[2] = dose: 12.5 mg/kg/injection, schedule: Q01DX009 (ip), vehicle: saline
[3] = dose: 200.0 mg/kg/injection, schedule: Q01DX009 (ip), vehicle: Klucel (hydroxypropylcellulose) (HPC)
[4] = dose: 400.0 mg/kg/injection, schedule: Q01DX009 (ip), vehicle: Klucel (hydroxypropylcellulose) (HPC)
[5] = dose: 50.0 mg/kg/injection, schedule: Q01DX009 (ip), vehicle: Klucel (hydroxypropylcellulose) (HPC)
[6] = dose: 100.0 mg/kg/injection, schedule: Q01DX009 (ip), vehicle: Klucel (hydroxypropylcellulose) (HPC)
[7] = dose: 25.0 mg/kg/injection, schedule: Q01DX009 (ip), vehicle: saline
[8] = dose: 50.0 mg/kg/injection, schedule: Q01DX009 (ip), vehicle: saline

Measured: T/C

CN1CCC=C(C(=O)N2c3ccccc3Sc3ccc(Cl)cc32)C1
inactive: [1] 96 % of control | [2] 89 % of control

COc1cc(C=Nc2ccc(-n3ccnc3C)cc2)ccc1N(CCCl)CCCl
inactive: dose: 2.5 mg/kg/injection, schedule: Q01DX009 (ip), vehicle: Klucel (hydroxypropylcellulose) (HPC) 105 % of control

CCCCCCCCCCCCOc1ccccn1
inactive: [3] 88 % of control | [4] 86 % of control

C[C@@H]1CC2=CC(=O)C=C[C@]2(C)[C@H]2CC[C@@]3(C)[C@@H](CC[C@]3(C)O)[C@H]12
inactive: dose: 6.25 mg/kg/injection, schedule: Q01DX009 (ip), vehicle: Klucel (hydroxypropylcellulose) (HPC) 107 % of control | dose: 12.5 mg/kg/injection, schedule: Q01DX009 (ip), vehicle: Klucel (hydroxypropylcellulose) (HPC) 103 % of control | dose: 25.0 mg/kg/injection, schedule: Q01DX009 (ip), vehicle: Klucel (hydroxypropylcellulose) (HPC) 102 % of control | [5] 95 % of control | [6] 93 % of control

C/C=C(/C#N)c1ccccc1
inactive: dose: 50.0 mg/kg/injection, schedule: Q04DX003 (ip), vehicle: saline with Tween-80 100 % of control | dose: 100.0 mg/kg/injection, schedule: Q04DX003 (ip), vehicle: saline with Tween-80 97 % of control

CCCCCCCCCCCC(=O)N(CCCC)CCCC
inactive: dose: 37.5 mg/kg/injection, schedule: Q01DX009 (ip), vehicle: Klucel (hydroxypropylcellulose) (HPC) 101 % of control | dose: 75.0 mg/kg/injection, schedule: Q01DX009 (ip), vehicle: Klucel (hydroxypropylcellulose) (HPC) 101 % of control | dose: 150.0 mg/kg/injection, schedule: Q01DX009 (ip), vehicle: Klucel (hydroxypropylcellulose) (HPC) 97 % of control

OCc1ccccc1NCc1ccccc1
inactive: dose: 100.0 mg/kg/injection, schedule: Q01DX009 (ip), vehicle: other 91 % of control and 109 % of control | dose: 200.0 mg/kg/injection, schedule: Q01DX009 (ip), vehicle: other 100 % of control | dose: 400.0 mg/kg/injection, schedule: Q01DX009 (ip), vehicle: other 95 % of control and 98 % of control

Cc1ccc(C)c(NC(=O)NC(C)C)c1
inactive: [6] 106 % of control | [3] 100 % of control | [4] 103 % of control

O=C1CN(CN2CCOCC2)C(=O)CN1CN1CCOCC1
inactive: [2] 98 % of control | [7] 102 % of control | [8] 112 % of control | dose: 100.0 mg/kg/injection, schedule: Q01DX009 (ip), vehicle: saline 104 % of control | dose: 200.0 mg/kg/injection, schedule: Q01DX009 (ip), vehicle: saline 101 % of control

CC(=O)Nc1nc(=O)n(CC(=O)c2cccs2)cc1F
inactive: dose: 6.25 mg/kg/injection, schedule: Q01DX009 (ip), vehicle: carboxymethylcellulose (CMC) 100 % of control | dose: 12.5 mg/kg/injection, schedule: Q01DX009 (ip), vehicle: carboxymethylcellulose (CMC) 99 % of control | dose: 25.0 mg/kg/injection, schedule: Q01DX009 (ip), vehicle: carboxymethylcellulose (CMC) 94 % of control | [5] 96 % of control | dose: 50.0 mg/kg/injection, schedule: Q01DX009 (ip), vehicle: carboxymethylcellulose (CMC) 102 % of control

FC(F)(F)c1ccc2c(c1)N(CCCN1CCN(CCC3OCCCO3)CC1)c1ccccc1S2
inactive: dose: 0.78 mg/kg/injection, schedule: Q01DX009 (ip), vehicle: saline 116 % of control | dose: 1.56 mg/kg/injection, schedule: Q01DX009 (ip), vehicle: saline 118 % of control | dose: 3.12 mg/kg/injection, schedule: Q01DX009 (ip), vehicle: saline 90 % of control | [1] 115 % of control

CNC(=O)Nc1nc2ccc([N+](=O)[O-])cc2[nH]1
inactive: dose: 50.0 mg/kg/injection, schedule: Q01DX009 (ip), vehicle: suspension in saline 101 % of control | dose: 100.0 mg/kg/injection, schedule: Q01DX009 (ip), vehicle: suspension in saline 91 % of control | dose: 200.0 mg/kg/injection, schedule: Q01DX009 (ip), vehicle: suspension in saline 90 % of control | dose: 400.0 mg/kg/injection, schedule: Q01DX009 (ip), vehicle: suspension in saline 91 % of control

CCNC1=C(N2CC2)C(=O)C(NCC)=C(N2CC2)C1=O
inactive: dose: 0.37 mg/kg/injection, schedule: Q01DX009 (ip), vehicle: saline 112 % of control | dose: 0.75 mg/kg/injection, schedule: Q01DX009 (ip), vehicle: saline 104 % of control and 116 % of control

OC(CCl)Cc1ccccc1 (stereo unspecified)
inactive: [2] 102 % of control | [7] 95 % of control | [8] 100 % of control

CCCC[P+](c1ccccc1)(c1ccccc1)c1ccccc1
inactive: [1] 90 % of control | [7] 95 % of control
